Data published in ChEMBL document CHEMBL3045716, “Isolation and characterization of n-octacosanoic acid from Viburnum foetens: a novel antibiofilm agent against Streptococcus Mutans” (2012).
Converted amounts (≈) assume the structure as drawn. The source made the active and inactive calls. No cut-off for these calls is given here.

Key:
Streptococcus mutans [1] = experiment: Antimicrobial activity against Streptococcus mutans UA159 after 24 hr by two-fold serial dilution method; format: functional; settings: UA159, 24 h
Streptococcus mutans [2] = experiment: Inhibition of Streptococcus mutans UA159 biofilm formation assessed as conversion of carbohydrates to organic acid measured as pH at 10 ug/ml; format: functional
Streptococcus mutans [3] = experiment: Inhibition of Streptococcus mutans UA159 biofilm formation assessed as conversion of carbohydrates to organic acid measured as pH at 5 ug/ml; format: functional
Streptococcus mutans [4] = experiment: Inhibition of Streptococcus mutans UA159 biofilm formation assessed as conversion of carbohydrates to organic acid measured as pH at 2.5 ug/ml; format: functional
Streptococcus mutans [5] = experiment: Inhibition of Streptococcus mutans UA159 biofilm formation assessed as conversion of carbohydrates to organic acid measured as pH at 1.25 ug/ml; format: functional
Streptococcus mutans [6] = experiment: Inhibition of Streptococcus mutans UA159 biofilm formation assessed as conversion of carbohydrates to organic acid measured as pH at 80 ug/ml; format: functional
Streptococcus mutans [7] = experiment: Inhibition of Streptococcus mutans UA159 biofilm formation assessed as conversion of carbohydrates to organic acid measured as pH at 40 ug/ml; format: functional
Streptococcus mutans [8] = experiment: Inhibition of Streptococcus mutans UA159 biofilm formation assessed as conversion of carbohydrates to organic acid measured as pH at 20 ug/ml; format: functional
Streptococcus mutans [9] = experiment: Inhibition of Streptococcus mutans UA159 biofilm formation assessed as conversion of carbohydrates to organic acid measured as pH at 0.625 ug/ml; format: functional
Streptococcus mutans [10] = experiment: Inhibition of Streptococcus mutans UA159 biofilm formation assessed as conversion of carbohydrates to organic acid measured as pH at 0.312 ug/ml; format: functional
Streptococcus mutans [11] = experiment: Inhibition of Streptococcus mutans UA159 biofilm formation assessed as biofilm thickness at 20 ug/ml after 24 hr by confocal laser scanning microscopic analysis (reference value: 19.74 +/- 0.5 uM); format: functional
Streptococcus mutans [12] = experiment: Inhibition of Streptococcus mutans UA159 biofilm formation assessed as inability of cells to aggregrate and form clumps at MIC after 24 hr by confocal laser scanning microscopic analysis; format: functional, organism-based
[13] = target: T1, Glucosyltransferase-SI (Streptococcus mutans serotype c (strain ATCC 700610 / UA159)) (UniProt P13470); experiment: Inhibition of Streptococcus mutans UA159 Glucosyltransferase assessed as water-insoluble glucan production using sucrose as substrate at 2.5 ug/ml after 24 hr
T1 sequence (whole entry): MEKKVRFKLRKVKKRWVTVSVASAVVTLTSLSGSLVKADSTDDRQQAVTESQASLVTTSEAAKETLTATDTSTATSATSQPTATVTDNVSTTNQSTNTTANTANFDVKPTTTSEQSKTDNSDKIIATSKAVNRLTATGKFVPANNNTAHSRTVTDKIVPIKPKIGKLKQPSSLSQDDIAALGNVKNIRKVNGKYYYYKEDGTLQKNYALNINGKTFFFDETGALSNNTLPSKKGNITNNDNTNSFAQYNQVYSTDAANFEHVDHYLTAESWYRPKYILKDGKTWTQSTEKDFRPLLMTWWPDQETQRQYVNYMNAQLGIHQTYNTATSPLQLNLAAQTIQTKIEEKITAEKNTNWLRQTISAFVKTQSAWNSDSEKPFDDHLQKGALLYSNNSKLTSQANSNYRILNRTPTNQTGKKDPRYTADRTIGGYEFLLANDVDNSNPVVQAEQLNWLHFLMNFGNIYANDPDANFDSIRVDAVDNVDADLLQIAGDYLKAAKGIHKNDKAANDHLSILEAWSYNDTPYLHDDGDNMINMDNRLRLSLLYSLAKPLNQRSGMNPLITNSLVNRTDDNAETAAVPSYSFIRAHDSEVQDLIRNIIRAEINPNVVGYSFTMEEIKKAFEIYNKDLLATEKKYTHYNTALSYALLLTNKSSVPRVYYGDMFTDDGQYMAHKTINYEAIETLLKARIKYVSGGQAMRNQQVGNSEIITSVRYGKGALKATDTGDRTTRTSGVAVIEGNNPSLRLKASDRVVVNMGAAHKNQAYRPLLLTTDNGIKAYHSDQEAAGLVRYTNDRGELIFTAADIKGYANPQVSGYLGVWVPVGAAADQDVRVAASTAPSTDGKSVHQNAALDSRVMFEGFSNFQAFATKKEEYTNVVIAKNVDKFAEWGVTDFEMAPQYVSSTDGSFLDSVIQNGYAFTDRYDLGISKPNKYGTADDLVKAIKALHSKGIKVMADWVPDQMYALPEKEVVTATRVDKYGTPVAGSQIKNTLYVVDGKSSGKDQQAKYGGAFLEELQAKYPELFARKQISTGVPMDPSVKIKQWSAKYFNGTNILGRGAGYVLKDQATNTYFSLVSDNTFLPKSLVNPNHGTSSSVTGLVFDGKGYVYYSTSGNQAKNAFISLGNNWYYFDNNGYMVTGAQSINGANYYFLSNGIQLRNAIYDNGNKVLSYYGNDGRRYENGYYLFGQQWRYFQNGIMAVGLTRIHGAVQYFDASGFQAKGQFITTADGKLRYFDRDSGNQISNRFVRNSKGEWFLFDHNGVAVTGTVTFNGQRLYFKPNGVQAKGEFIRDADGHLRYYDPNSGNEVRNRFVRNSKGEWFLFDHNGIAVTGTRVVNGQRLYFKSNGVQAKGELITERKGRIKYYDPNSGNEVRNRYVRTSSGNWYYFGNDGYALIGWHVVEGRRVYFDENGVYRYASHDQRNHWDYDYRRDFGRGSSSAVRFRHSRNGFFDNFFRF

Streptococcus mutans [14] = experiment: Inhibition of Streptococcus mutans UA159 cell surface hydrophobicity at 20 ug/ml by spectrophotometry (reference value: 88.01 +/- 1.94%); format: functional
Streptococcus mutans [15] = experiment: Inhibition of Streptococcus mutans UA159 cell surface hydrophobicity at 5 ug/ml by spectrophotometry (reference value: 88.01 +/- 1.94%); format: functional
Streptococcus mutans [16] = experiment: Inhibition of sucrose-dependent adhesion of Streptococcus mutans UA159 to saliva-coated glass surface at 80 ug/ml by spectrophotometry; format: functional, organism-based
Streptococcus mutans [17] = experiment: Inhibition of sucrose-dependent adhesion of Streptococcus mutans UA159 to saliva-coated glass surface at 10 ug/ml by spectrophotometry; format: functional
Streptococcus mutans [18] = experiment: Inhibition of sucrose-dependent adhesion of Streptococcus mutans UA159 to saliva-coated glass surface at 1.25 ug/ml by spectrophotometry; format: functional
Streptococcus mutans [19] = experiment: Inhibition of adhesion of Streptococcus mutans UA159 to saliva-coated glass surface at 0.156 to 5120 ug/ml by spectrophotometry; format: functional, organism-based
Streptococcus mutans [20] = experiment: Inhibition of Streptococcus mutans UA159 biofilm formation after 24 hr at 20 ug/ml by crystal violet staining analysis; format: functional; settings: UA159, 24 h
Streptococcus mutans [21] = experiment: Inhibition of Streptococcus mutans UA159 biofilm formation at sub-MIC after 24 hr by crystal violet staining analysis; format: functional
Streptococcus mutans [22] = experiment: Inhibition of Streptococcus mutans UA159 biofilm formation after 24 hr by crystal violet staining analysis; format: functional, organism-based

Question: What does the source list for `CCCCCCCCCCCCCCCCCCCCCCCCCCCC(=O)O` [N-OCTACOSANOIC ACID]?
Answer: MIC (Streptococcus mutans [1]): 80 µg/mL (≈ 188 µM); pH (Streptococcus mutans [2]): 6.48; pH (Streptococcus mutans [3]): 6.02; pH (Streptococcus mutans [4]): 5.68; pH (Streptococcus mutans [5]): 5.14; pH (Streptococcus mutans [6]): 7.55; pH (Streptococcus mutans [7]): 6.98; pH (Streptococcus mutans [8]): 6.66; pH (Streptococcus mutans [9]): 4.94; pH (Streptococcus mutans [10]): 4.65; biofilm thickness (Streptococcus mutans [11]): 12.7 µm; inhibition (Streptococcus mutans [12]): Active; inhibition [13]: 50%; inhibition at 20 µg/mL (Streptococcus mutans [14]): 20.1%; inhibition at 5 µg/mL (Streptococcus mutans [15]): 48.4%; inhibition (Streptococcus mutans [16]): Active; inhibition at 10 µg/mL (Streptococcus mutans [17]): 50%; inhibition at 1.25 µg/mL (Streptococcus mutans [18]): 61.3%; inhibition (Streptococcus mutans [19]): Active; inhibition at 20 µg/mL (Streptococcus mutans [20]): 50%; inhibition (INH) (Streptococcus mutans [21]): 60%; inhibition (Streptococcus mutans [22]): Dose-dependent effect
